{"source": "paper PMC8686256", "about": "“DZNep promotes mouse bone defect healing via enhancing both osteogenesis and osteoclastogenesis” (Stem Cell Research & Therapy, 2021)", "format_in_all_cases": "cell-based, mouse", "key": {"[1]": {"test_system": "BMMs and calvarial OB co-culture", "test": "Osteoblasts and osteoclasts co-cultivation, ALP staining", "settings": "7 days", "description": "For the osteoblasts and osteoclasts co-culture system, calvarial OB isolated from day 1–3 pups were cultured for 24 h. Then the calvarial OB with complete α-MEM (α-MEM supplemented with 10% FBS, 1% penicillin/streptomycin) were seeded into 24-well plates at a density of 2 × 10^4 cells/well. After 3 days of cultivation, the medium was replaced by the complete α-MEM containing […] ascorbic acid and 5 mM β-glycerophosphate. On the same day, bone marrow monocytes were isolated from bone marrow and cultured in 10-cm dish. Another 3 days later, BMMs were seeded at a density of 4 × 10^4 cells/well into the 24-well plate containing the calvarial OB, and the α-MEM supplemented with 15% FBS, 1% penicillin/streptomycin, 1, 25-dihydroxy vitamin D3 (10 nM; CSN), and PGE2 (1 μM; CSN). After changed every 3 days for 2 times of the culture medium, the cells were then fixed and stained to observe the percent of the positive ALP staining area using a kit according to the manufacturer’s instructions (Beyotime, Shanghai, China). The percent of area was then quantified using ImageJ."}, "c-FOS and NFATc1": {"test_system": "c-FOS and NFATc1", "test": "Western blotting of c-FOS and NFATc1 in BMMs", "description": "To explore the variation of the proteins on long-term activated signaling, BMMs were cultured in α-MEM containing M-CSF (30 ng/ml) and RANKL (50 ng/ml) at a density of 2 × 10^5 cells/well on 6-well plates. After 24 h, the BMMs were treated with or without 25 nM DZNep for 0, 1, 3, and 5 days, and total protein was obtained, respectively, on these specific time points. To determine the effect of DZNep on the protein of short-time activated phosphorylated, RAW264.7 cells were cultured in α-MEM at a density of 5 × 10^5 cells/well on 6-well plates. One day later, the cells were treated with the serum-free α-MEM in the presence or absence of DZNEP for 3 hand then stimulated with 50 ng/mL RANKL for 0, 10, 20, 30, and 60 min. To determine the efficiency of EZH2 shRna, BMMs were cultured in α-MEM at a density of 5 × 10^5 cells/well on 6-well plates. One day later, the cells were treated with negative control shRNA or different EZH2 shRNA for 2 days. To determine the efficiency of Foxc1 siRna, BMMs were cultured in α-MEM at a density of 5 × 10^5 cells/well on 6-well plates. […] After TBST wash for 3 times, the secondary fluorescence antibodies were incubated without light for 1 h at room temperature and the reactivity was visualized by using Odyssey V3.0 image scanning (Li-COR. Inc., Lincoln, NE, USA). […]"}, "BMMs": {"test_system": "BMMs", "test": "RANKL-induced osteoclast differentiation, TRAP staining", "description": "To evaluate the role of DZNep on osteoclastogenesis, BMMs were seeded into, in triplicate, a 96-well plate at the density of 8 × 10^3 cells/well with complete α-MEM for one day. Afterward, the culture medium was replaced by the complete α-MEM containing different concentrations of DZNep (control, 3.125, 6.25, 12.5, and 25 nM) and RANKL (50 ng/ml) to stimulate osteoclast differentiation. Cells untreated with DZNep were included as the control group. Moreover, the BMMs treated with or without DZNep for various days were also analyzed. For EZH2 gene knockdown studies, the cells were transfected with virus constructed of different EZH2 short hairpin RNA (shRNA) and negative control shRNA by mixed with polybrene (final concentration of 10ug/ml) for 48 h. The transfection mixture was then replaced by complete α-MEM added with puromycin for 24 h, and BMMs were then seeded into a 96-well plate at the density of 1 × 10^4 cells/well with complete α-MEM. The culture medium was then replaced every 2 days until the matured osteoclasts could be observed in the plate. For Foxc1 inhibition experiment, the cells were separately transfected with negative control siRNA, negative control siRNA with DZNep, and Foxc1 small interfering RNA (siRNA) with DZNep and by mixed with transfection reagent and osteoclast culture medium. The transfection mixture was then replaced every 2 days until the matured osteoclasts could be observed in the plate. The plate was then washed by PBS 1 times and fixed with 4% paraformaldehyde for 15 min. TRAP staining was performed immediately without light at 37 °C for 30 min. An optical microscope (Olympus, Tokyo, Japan) was used to image the photographs, and the TRAP-positive cells with more than three nuclei were considered osteoclasts and were quantified the area and number using the ImageJ software (NIH, Bethesda, MD, USA)."}, "[2]": {"settings": "RANKL, M-CSF, DZNep ≤25 nM, 5 days, vs control"}}, "data": [{"smiles": "Nc1nccc2c1ncn2C1C=C(CO)C(O)C1O", "note": "(stereo not drawn) [DZNep, 3-Deazaneplanocin]", "values": [{"measurement": "osteogenesis in co-culture system (ALP)", "setting": "[1]", "result": "still preserves the effect of promoting osteogenesis"}, {"measurement": "expression of c-FOS and NFATc1 (western blot)", "setting": "c-FOS and NFATc1; 25 nM, 0, 1, 3, 5 days, vs control", "result": "further enhanced"}, {"measurement": "c-FOS and NFATc1 expression (western blot), various concentrations", "setting": "c-FOS and NFATc1; RANKL, 5 days", "result": "upregulated"}, {"measurement": "number of osteoclasts, treatment at specific time points", "setting": "BMMs; 25 nM, day 3–5, vs control", "result": "increased the number of osteoclasts at the middle stage"}, {"measurement": "number of mature osteoclast nuclei", "setting": "BMMs; [2]", "result": "increased in a dose-dependent manner significantly"}, {"measurement": "number of mature osteoclasts", "setting": "BMMs; [2]", "result": "increased the number of mature osteoclasts in a DZNep dose-dependent manner"}]}]}
